Source: US12187782B2, “PDL1 peptides for use in cancer vaccines” (IO BIOTECH APS, priority 2016, dated 2025)
No end group written: not given here.

What was measured:
[1] = system: CD8 T-cells specific for the minimal epitope PDL111; assay: ELISPOT with PDL111-specific CD8 T cells; format: cell-based, human
Excerpt: (§1) The ELISPOT technique enabled screening a high number of peptide antigens for T-cell recognition, despite the availability of relatively few T-cells. We used the ELISPOT assay to quantify peptide-specific, effector cells that secreted IFN-γ, as described in Example 1. We performed the assays according to the guidelines provided by the cancer immunotherapy immunoguiding program (CIP; cimt.eu/cimt/files/dl/cip_guidelines.pdf). To measure T-cell reactivity, nitrocellulose-bottomed 96-well plates (MultiScreen MSIPN4W; Millipore) were coated overnight with the relevant antibodies. The wells were washed and blocked with X-vivo medium for 2 h. The Tumor Infiltrating Lymphoctyes (TILs) were added at different cell concentrations in triplicate wells, with PD-L1 peptides or with control peptide, and incubated overnight. The following day, the wells were washed, and the relevant biotinylated secondary antibody (Mabtech) was added, followed by the avidin-enzyme conjugate (AP-Avidin; Calbiochem/Invitrogen Life Technologies); finally, we added the enzyme substrate, NBT/BCIP (Invitrogen Life Technologies) for visualization. The spots on the developed ELISPOT plates were analyzed on a CTL ImmunoSpot S6 Ultimate-V analyzer with Immunospot software, v5.1.
[…] We analysed the reactivity towards PDL111, PDL1242-264 ([…]— PDLong2, SEQ ID NO: 91), 10104.1 (—OH) and 10104.1 (NH). […]

[2] = system: PBMCs from malignant melanoma patients; assay: Co-stimulation assay: PBMCs stimulated with DCvacc plus peptide, read by intracellular TNFα/IFNγ staining; format: cell-based, human; conditions: for CD4+ T cell reactivity toward DCvacc increased by co-stimulation (donors) / CD8+ T cell reactivity toward DCvacc increased by co-stimulation (donors): eight donors, vs control peptide
Procedure: PBMCs from malignant melanoma patients were stimulated with autologous DCvacc with ratio 1:10 DCvacc:PBMCs. […] Second stimulation with DCvacc was performed on day 7 and followed by peptide co-stimulation on day […] (120 U/mL) was added a day after each peptide co-stimulations. A week after second peptide co-stimulation the cultures were analyzed for DCvacc response using intracellular cytokine staining.
For detection of cell subpopulations producing cytokines (IFN-γ and TNF-α), PBMCs that were stimulated with DCvacc and co-stimulated with peptides for two weeks, were stimulated with DCvacc (ratio 1:10 DCvacc:PBMCs) for 5 hours at 37° C. with 5% CO2. GolgiPlug (BD) was added at a dilution of 1:200 after the first hour of incubation. After 4 additional hours cells were washed twice with PBS, stained fluorochrome conjugated antibodies for surface markers (CD3-Amcyan, CD4-PerCP and CD8-Pacific Blue, all from BD). Cells were washed one additional time and thereafter were fixed and permeabilized with Fixation/Permeabilization and Permeabilization Buffer (eBioscience), according to manufacturer's instructions. Cells were subsequently stained with fluorochrome-conjugated antibodies for intracellular cytokines. The following combinations were used: IFN-γ-PE-CY7 (BD), TNF-α-APC (eBioscience). […] Stained cells were analyzed using a BD FACSCanto II flow cytometer and further analysis was performed with BD FacsDiva Software.

[3] = system: cells from spleen and draining lymph nodes; assay: IFNγ-Elispot of spleen and dLN cells from DNFB-treated mice, stimulated ex vivo with peptide (Example 4); format: cell-based, C56BL/6 mice; conditions: not with control, 5 μg/ml peptide ex vivo
Procedure: A solution of 0.15% 2,4-dinitrofluorobenzene (DNFB; an allergen) in 1:4 olive oil/ace-tone (OOA) (or just OOA as a control) was painted on back of both ears of C56BL/6 mice for 3 consecutive days (days 0-2). On day 5 the mice were sacrificed and a single cell solution of the removed spleen and draining lymph nodes (dLNs) was made for further analysis by IFNγ-Elispot.
8-9×10^5 cells/well were stimulated ex vivo in Elispot plates with 5 μg/ml mPD-L1long1 (mLong1 from Example 3) or mPD-L1short (a part of the mLong1 peptide having the sequence […] (SEQ ID NO: 101)) for 18-20 hours. Spot count for the peptide stimulated wells was subtracted the background (spot count of wells with no peptide stimulation).
(§2) • Following sacrifice of mice, spleen (and draining lymph nodes (dLNs)) were removed. • Spleen and dLNs was smashed through a […] cell strainer into a 50 ml tube with media (RPMI+10% FCS+1% pen/strep) and washed for at 300 G for 5 minutes, repeated for dLNs. Splenocytes was lysed with RBC lysis buffer for 1 min and washed in media twice. • Cells were counted and transferred to IFNγ Ab-coated Elispot plates in cell number of 9×10^5 cells/well. Coating antibody: Anti-mouse IFN-g mAb AN18 (Mabtech cat no. 3321-3-1000). • Stimulatory peptides were added to designated wells in concentrations of 5 μg/ml. Control wells were not stimulated with peptide. • Elispot plates were developed after 18-20 hours. • Detection antibody Anti-mouse IFN-g mAb R4-6A2-Biotin (Mabtech cat no. 3321-6-1000). Avidin-enzyme conjugate (AP-Avidin; Calbiochem/Invitrogen Life Technologies) and enzyme substrate, NBT/BCIP (Invitrogen Life Technologies) used for visualization. • Spot count for peptide-stimulated wells was always subtracted the corresponding wells without peptide stimulation (the background) • Negative values were sat to zero.

splenocytes = assay: IFNγ-Elispot of splenocytes from IFNγ-injected mice, stimulated ex vivo with mPDL1 peptides (Example 3); format: cell-based, C56BL/6 mice; conditions: splenocytes after prior IFNγ injection; 5 μg/ml peptide ex vivo, 18-20 hours
Procedure: C56BL/6 mice were injected with 1 μg IFNγ in 200 μl PBS i.p (or no injection for control) two days apart (day 0+2) to simulate inflammation. On day 5 the mice were sacrificed and a single cell solution of the removed spleen was made for further analysis by IFNγ-Elispot.
9×10^5 splenocytes/well were stimulated ex vivo in Elispot plates with 5 μg/ml peptides from murine (m)PDL1 for 18-20 hours. Spot count for the peptide stimulated wells was subtracted the background (spot count of wells with no peptide stimulation).
as §2, with “Avidin-enzyme conjugate (AP-Avidin; Calbiochem/Invitrogen Life Technologies) and enzyme substrate, NBT/BCIP (Invitrogen Life Technologies) used for visualization. • Spot count for peptide-stimulated wells was always subtracted the corresponding wells without peptide stimulation (the background) • Negative values were sat to zero.” left out

PD-L1-specific T cells = assay: Vaccination of mice with mPD-L1long1, IFNγ-Elispot (Example 5); format: in vivo, C56BL/6 mice
Procedure: C56BL/6 mice were vaccinated subcutaneously (s.c) on the lower back with 100 μg mPD-L1long1 (mLong1 from Example 3) with or without Montanide as an adjuvant (only Montanide as a control) at day 0. On day 7 the mice were sacrificed and a single cell solution of the removed spleen was made for further analysis by IFNγ-Elispot.
9×10^5 splenocytes/well were stimulated ex vivo in Elispot plates with 5 μg/ml mPD-L1long1 or mPD-L1short for 18-20 hours. Spot count for the peptide stimulated wells was subtracted the background (spot count of wells with no peptide stimulation).
as §2

[4] = system: tumor-infiltrating lymphocytes from 7 melanoma patients; assay: IFNγ ELISPOT on tumor-infiltrating lymphocytes (Example 2); format: cell-based, human
Excerpt: as §1

[5] = PBMCs before vaccination (baseline)
[6] = peptide-vaccinated mice (100 μg s.c.) compared to adjuvant alone, day 7

Substance: Arg-Thr-His-Leu-Val-Ile-Leu-Gly-Ala-Ile-Leu-Leu-Cys-Leu-Gly-Val-Ala-Leu-Thr-Phe-Ile-Phe-Arg-Leu-Arg-Lys-Gly-Arg-NH2 (RTHLVILGAILLCLGVALTFIFRLRKGR-NH2) [IO104.1-NH2]
- reactivity of PDL111-specific CD8 T cells, ELISPOT [1]: able to react

Substance: Arg-Thr-His-Leu-Val-Ile-Leu-Gly-Ala-Ile-Leu-Leu-Cys-Leu-Gly-Val-Ala-Leu-Thr-Phe-Ile-Phe-Arg-Leu-Arg-Lys-Gly-Arg-OH (RTHLVILGAILLCLGVALTFIFRLRKGR-OH) [IO104.1-OH]
- reactivity of PDL111-specific CD8 T cells, ELISPOT [1]: able to react

Substance: FMTYWHLLNAFTVTVPKDL (listed as Homo sapiens) [PDLong1]
- CD4+ T cell reactivity toward DCvacc increased by co-stimulation (donors) ([2]; PBMCs after four vaccinations): all donors
- CD8+ T cell reactivity toward DCvacc increased by co-stimulation (donors) ([2]; PBMCs after four vaccinations): five out of eight donors
- CD4+ T cell reactivity toward DCvacc increased by co-stimulation (donors) [2, 5]: six out of eight donors
- CD8+ T cell reactivity toward DCvacc increased by co-stimulation (donors) [2, 5]: seven out of eight donors
- CD4+ T cells reacting against DCvacc compared to control peptide ([2]; all cultures, P=0.02): significantly greater extent
- CD8+ T cells reacting against DCvacc compared to control peptide ([2]; all cultures, P=0.05): significantly greater extent
- number of PBMCs that showed reactivity against DCvacc ([2]; cocultured with peptide compared to the control HIV epitope): increase

Substance: GIIFTACCHL (listed as Mus musculus) [mPD-L1short]
- recognition by dLNs, IFNγ-Elispot [3]: recognized
- recognition by splenocytes, IFNγ-Elispot [3]: recognized

Substance: MRIFAGIIFTACCHLLRA (listed as Mus musculus) [mLong1]
- recognition by T cells, IFNγ-Elispot (splenocytes): most positive results
- recognition by dLNs, IFNγ-Elispot [3]: recognized
- recognition by splenocytes, IFNγ-Elispot [3]: recognized
- PD-L1-specific T cell response in the draining lymph nodes (DLNs) (PD-L1-specific T cells; [6]): strong
- PD-L1-specific T cell response in the spleens (PD-L1-specific T cells; [6]): strong
- PD-L1-specific response by IFNγ Elispot, ex vivo stimulation with mPD-L1long (PD-L1-specific T cells; vaccinated mice): increased
- PD-L1-specific response by IFNγ Elispot, ex vivo stimulation with mPD-L1 short (PD-L1-specific T cells; vaccinated mice): increased

Substance: RTHLVILGAILLCLGVALTFIFRLRKGR (not fully specified; listed as Homo sapiens) [IO104.1, positions 238 to 265 of hPD-L1; C terminal acid or amide form]
- T cell response, IFNγ ELISPOT (patients responding) [4]: three of the patients

Substance: WVLLGSILLFLIVVSTVLLFLRKQV (listed as Mus musculus) [mLong3]
- recognition by T cells, IFNγ-Elispot (splenocytes): most positive results
